# Experiments:
# [1] = test system: patients with symptomatic oHCM; experiment: SEQUOIA-HCM: analysis by baseline Valsalva LVOT-G severity (severe <100 mmHg vs very severe ≥100 mmHg); format: in vivo, human; settings: for Change in KCCQ CSS, Mean (SD) Change from Baseline / LVOT-G - Rest, Mean (SD) Change from Baseline / LVOT-G - Valsalva, Mean (SD) Change from Baseline / Peak VO2, Mean (SD) Change from Baseline / Change in KCCQ CSS, Adjusted diff / LVOT-G - Rest, Adjusted diff / LVOT-G - Valsalva, Adjusted diff / NT-proBNP, Adjusted diff / Peak VO2, Adjusted diff / Proportional LVOT-G - Rest, Adjusted diff / Proportional LVOT-G - Valsalva, Adjusted diff / hs-cTpI, Adjusted diff: Baseline to Week 24; for Change in KCCQ CSS, Adjusted diff / LVOT-G - Rest, Adjusted diff / LVOT-G - Valsalva, Adjusted diff / NT-proBNP, Adjusted diff / Peak VO2, Adjusted diff / Proportional LVOT-G - Rest, Adjusted diff / Proportional LVOT-G - Valsalva, Adjusted diff / hs-cTpI, Adjusted diff / NYHA FC improvement, Rate difference / Proportion of patients with rest LVOT-G <30 mmHg & Valsalva LVOT-G <50 mmHg, Adjusted diff: vs placebo; for NYHA FC improvement, % of patients / Proportion of patients with rest LVOT-G <30 mmHg & Valsalva LVOT-G <50 mmHg / NYHA FC improvement, Rate difference / Proportion of patients with rest LVOT-G <30 mmHg & Valsalva LVOT-G <50 mmHg, Adjusted diff: Week 24; for proportional reduction from baseline in Valsalva (provoked) LVOT-G / proportional reduction from baseline in resting LVOT-G: week 24
# Text: Patients with Hypertrophic Obstructive Cardiomyopathy and Very Severe Left Ventricular Outflow Tract Obstruction. Patients enrolled in SEQUOIA-HCM (the study of Example 8), the pivotal phase 3 controlled trial of aficamten in adults with symptomatic oHCM, were grouped according to baseline Valsalva LVOT-G (severe obstruction [<100 mmHg] versus very severe obstruction [≥100 mmHg]). The prespecified primary endpoint was the proportional change from baseline to Week 24 in rest and Valsalva LVOT-G in severe versus very severe obstruction groups. Secondary endpoints included change in symptoms, cardiac biomarkers, and exercise capacity by group (Table 14). Of the 282 patients randomized, 209 patients had severe obstruction, and 73 had very severe obstruction. Compared to baseline, there was a profound reduction in resting and provoked obstruction in both groups. By week 24, the proportional reductions (95% CI) from baseline in the severely obstructed cohort were 69% (74 to 63) and 64% (69 to 56), and 73% (81 to 63) and 71% (79 to 61) in the very severe obstruction cohort, but there was no between-group difference (p>0.05). […] The post-titration doses by group were similar, with 81% and 88% in each cohort receiving the 15 mg and 20 mg dose strengths (p=0.21). There were no instances of per protocol down-titration in the very severe obstruction group, and treatment emergent adverse events (TEAE's) were balanced between groups (any TEAE 77 [71%] in severe versus 28 [85%] in very severe obstruction; p=0.60).
# [2] = test system: patients with symptomatic oHCM; experiment: SEQUOIA-HCM: EQ-5D-5L index and Visual Analogue Scale quality of life; format: in vivo, human
# Text: A further exploratory objective of this trial was to evaluate the effect of aficamten on health status and health-related quality of life as measured by PRO questionnaire, as determine by changes from baseline to Week 24 in individual responses to the EuroQol 5-dimension 5-level instrument (EQ-5D-5L). Improved exercise capacity, disease-specific quality-of-life (QoL), and hemodynamics in patients with obstructive hypertrophic cardiomyopathy (oHCM). Participants underwent blinded dose escalation over 6 weeks and were treated for 24 weeks followed by 4-week washout. EQ-5D-5L index (ranges from 0 to 1) and the Visual Analogue Scale (VAS; from 0 to 100) was measured at baseline and weeks 0, 2, 4, 8, 12, 16, 20, 24, with higher scores indicating better QoL. Aficamten treatment effect on EQ-5D-5L was estimated using linear regression (specific study visits) and mixed effects regression (overall treatment effect) using all follow-up data through week 24, with model adjustments for baseline EQ-5D-5L score and randomization stratification variables.
# [3] = Baseline Valsalva LVOT-G <100 mmHg
# [4] = Baseline Valsalva LVOT-G <100 mmHg, N = 109
# [5] = Baseline Valsalva LVOT-G ≥100mmHg
# [6] = Baseline Valsalva LVOT-G ≥100mmHg, N=33
# [7] = severe obstruction (baseline Valsalva LVOT-G <100 mmHg)
# [8] = very severe obstruction (≥100 mmHg)
# [9] = overall treatment effect through week 24
smiles,measurement,setting,value
"CCc1nc(-c2ccc3c(c2)CC[C@H]3NC(=O)c2cnn(C)c2)no1 [aficamten, (R)—N-(5-(5-ethyl-1,2,4-oxadiazol-3-yl)-2,3-dihydro-1H-inden-1-yl)-1-methyl-1H-pyrazole-4-carboxamide]","Change in KCCQ CSS, Mean (SD) Change from Baseline",[1]; [3],12
same,"LVOT-G - Rest, Mean (SD) Change from Baseline",[1]; [3],−28 ± 25 mmHg
same,"LVOT-G - Valsalva, Mean (SD) Change from Baseline",[1]; [3],−38 ± 31 mmHg
same,"Peak VO2, Mean (SD) Change from Baseline",[1]; [3],1.8 ± 3.2 mL/min/kg
same,"Change in KCCQ CSS, Adjusted diff",[1]; [3],+8
same,"LVOT-G - Rest, Adjusted diff",[1]; [3],−35 mmHg
same,"LVOT-G - Valsalva, Adjusted diff",[1]; [3],−43 mmHg
same,"NT-proBNP, Adjusted diff",[1]; [3],−79%
same,"Peak VO2, Adjusted diff",[1]; [3],+1.6 mL/kg/min
same,"Proportional LVOT-G - Rest, Adjusted diff",[1]; [3],−69%
same,"Proportional LVOT-G - Valsalva, Adjusted diff",[1]; [3],−64%
same,"hs-cTpI, Adjusted diff",[1]; [3],−45%
same,"NYHA FC improvement, % of patients",[1]; [4],(62%)
same,Proportion of patients with rest LVOT-G <30 mmHg & Valsalva LVOT-G <50 mmHg,[1]; [4],(73%)
same,"NYHA FC improvement, Rate difference",[1]; [3],+38.2%
same,"Proportion of patients with rest LVOT-G <30 mmHg & Valsalva LVOT-G <50 mmHg, Adjusted diff",[1]; [3],+63.7%
same,"Change in KCCQ CSS, Mean (SD) Change from Baseline",[1]; [5],9
same,"LVOT-G - Rest, Mean (SD) Change from Baseline",[1]; [5],−60 ± 29 mmHg
same,"LVOT-G - Valsalva, Mean (SD) Change from Baseline",[1]; [5],−82 ± 38 mmHg
same,"Peak VO2, Mean (SD) Change from Baseline",[1]; [5],1.6 ± 2.8 mL/min/kg
same,"Change in KCCQ CSS, Adjusted diff",[1]; [5],+4
same,"LVOT-G - Rest, Adjusted diff",[1]; [5],−52 mmHg
same,"LVOT-G - Valsalva, Adjusted diff",[1]; [5],−68 mmHg
same,"NT-proBNP, Adjusted diff",[1]; [5],−85%
same,"Peak VO2, Adjusted diff",[1]; [5],+1.8 mL/kg/min
same,"Proportional LVOT-G - Rest, Adjusted diff",[1]; [5],−73%
same,"Proportional LVOT-G - Valsalva, Adjusted diff",[1]; [5],−71%
same,"hs-cTpI, Adjusted diff",[1]; [5],−34%
same,"NYHA FC improvement, % of patients",[1]; [6],(49%)
same,Proportion of patients with rest LVOT-G <30 mmHg & Valsalva LVOT-G <50 mmHg,[1]; [6],(52%)
same,"NYHA FC improvement, Rate difference",[1]; [5],+22.4%
same,"Proportion of patients with rest LVOT-G <30 mmHg & Valsalva LVOT-G <50 mmHg, Adjusted diff",[1]; [5],+51.2%
same,proportional reduction from baseline in Valsalva (provoked) LVOT-G,[1]; [7],64%
same,proportional reduction from baseline in resting LVOT-G,[1]; [7],69%
same,proportional reduction from baseline in Valsalva (provoked) LVOT-G,[1]; [8],71%
same,proportional reduction from baseline in resting LVOT-G,[1]; [8],73%
same,QoL after treatment withdrawal at 24 weeks compared with placebo,[2]; Index and VAS,worsened
same,improvement of EQ-5D-5L VAS versus placebo,[2]; [9],2.8 points
same,improvement of EQ-5D-5L index versus placebo,[2]; [9],0.026

# Reference: patent publication US20250295639A1, “METHODS FOR TREATING HEART DISEASES” (Cytokinetics, Incorporated, priority 2024, published 2025)
